Molecules are shown by their SMILES.

The experiment addresses cGMP PDE5 (UniProt O76074). The experiment can be described thus: In vitro PDE inhibitory activity against cGMP PDE5. The note with it: concentration of compound required for 50% inhibition of enzyme activity, read-out: IC50 as inhibitors of cGMP PDE5. It is filed as biochemical, human or rabbit. Here is the method: In vitro PDE inhibitory activities against cyclic guanosine 3′,5′-monophosphate (cGMP) and cyclic adenosine 3′,5′-monophosphate (cAMP) phosphodiesterases were determined by measurement of their IC50 values (the concentration of compound required for 50% inhibition of enzyme activity).
The required PDE enzymes were isolated from a variety of sources, including human corpus cavernosum, human and rabbit platelets, human cardiac ventricle, human skeletal muscle and bovine retina, essentially by the method of W. J. Thompson and M. M. Appleman (Biochem., 1971, 10, 311). In particular, the cGMP-specific PDE (PDE5) and the cGMP-inhibited cAMP PDE (PDE3) were obtained from human corpus cavernosum tissue, human platelets or rabbit platelets; the cGMP-stimulated PDE (PDE2) was obtained from human corpus cavernosum; the calcium/calmodulin (Ca/CAM)-dependent PDE (PDE1) from human cardiac ventricle; the cAMP-specific PDE (PDE4) from human skeletal muscle; and the photoreceptor PDE (PDE6) from bovine retina.
Assays were performed using modification of the “batch” method of W. J. Thompson et al. (Biochem., 1979, 18, 5228).
Consider `CCc1c2nc(-c3cc(S(=O)(=O)N4CCC(CC)CC4)cnc3OCCOC)[nH]c(=O)c2nn1Cc1ccccn1` [Example 22], for which the IC50 is 10.3 nM. With `CCOc1ccc(S(=O)(=O)N2CCC(CC)CC2)cc1-c1nc2c(CC)n(Cc3ccccn3)nc2c(=O)[nH]1` [Example 4], the IC50 was 26.6 nM. The value for `CCCOc1ccc(S(=O)(=O)N2CC(O)C2)cc1-c1nc2c(CCC)n(Cc3ccccn3)nc2c(=O)[nH]1` [Example 8] was 16.4 nM; that for `CCCc1c2nc(-c3cc(S(=O)(=O)N(C)C)cnc3OCC)[nH]c(=O)c2nn1Cc1ccccn1` [Example 19, 5-[5-(N,N-Dimethylaminosulfonyl)-2-ethoxypyridin-3-yl]-3-n-propyl-2-(pyridin-2-yl)methyl-2,6dihydro-7H-pyrazolo[4,3-d]pyrimidin-7-one] was 9.7 nM; that for `CCCOc1ccc(S(=O)(=O)NC2CCN(C(=O)OCC)CC2)cc1-c1nc2c(CCC)n(Cc3ccccn3)nc2c(=O)[nH]1` [Example 10] was 14 nM. The value for `CCCOc1ncc(S(=O)(=O)NCCN(C)C)cc1-c1nc2c(CCC)n(Cc3ccccn3)nc2c(=O)[nH]1` [Example 20, 5-(5-[(3-N,N-Dimethylamino)-1-ethylaminosulfonyl]-2-n-propoxypyridin-3-yl)-3-n-propyl-2-(pyridin-2-yl)methyl-2,6-dihydro-7H-pyrazolo[4,3-d]pyrimidin-7-one] was 8.5 nM.

A word on the IC50: it is the concentration that inhibits the measured activity by half.

These data come from patent US6670366B1, “Pyrazolopyrimidinone cGMP PDE5 inhibitors for the treatment of sexual dysfunction” (Pfizer Inc, priority 1998, dated 2003).
